pIC50: −log10 of the molar value.
Columns and labels:
KHK-C [1] = target: T1, KHK-C (Homo sapiens (Human), UniProt P50053); experiment: Assay C: KHK assay at high fructose (8 mM) and ATP (2 mM), 1 nM KHK-C; type: biochemical; conditions: for IC50: read-out: IC50 (nM) Assay C 1 nM KHK-C, 8 mM fructose, 2 mM ATP, avg of (#) runs
Text: (§1) A screening assay was developed for KHK involving a coupled enzyme system which used the product of the KHK reaction to drive an absorbance signal in kinetic mode. KHK takes fructose and ATP and converts it to F1P and ADP. ADP then serves as substrate to pyruvate kinase which converts PEP to pyruvate which is then reduced to lactate by lactate dehydrogenase with the concomitant oxidation of NADH to NAD+. The resulting depletion of NADH was monitored by measuring absorbance at 340 nm.
(§2) Recombinant human KHK-C and KHK-A were expressed in E. coli as a His-tagged fusion protein and purified using Ni-NTA chromatography.
A third KHK assay, referred to as Assay C, was performed at high fructose and ATP concentrations, conditions that would be more consistent with physiological concentrations of the natural substrates of the KHK enzyme. Assay C was conducted as described above for Assay B except using 8 mM fructose and 2 mM ATP, and compound concentration range of 10 pM to 1 μM or 50 pM to 5 μM using half-log dilution scheme.

KHK-C [2] = target: T1, KHK-C; experiment: Assay A: coupled-enzyme KHK absorbance assay, 10 nM KHK-C; conditions: 10 nM KHK-C, 0.8 mM fructose, 0.2 mM ATP, avg of (#) runs
Text: as §1, §2
Compounds were prepared in DMSO as 4 mM stocks, diluted using an 11-point half-log scheme on a Biomek FX (Beckman Coulter), and incubated at rt for 30 minutes with the reaction mixture containing 50 mM HEPES, pH 7.4, 140 mM KCl, 3.5 mM MgCl2, 0.8 mM fructose, 2 mM TCEP, 0.8 mM PEP, 0.7 mM NADH, 0.01% Triton X-100, 30 U/mL pyruvate kinase-lactate dehydrogenase, and 10 nM purified KHK-C. The compound concentration in each well ranged from 1 nM to 100 μM. The reaction was initiated with the addition of 0.2 mM ATP. The absorbance was measured for 30 minutes on a SpectraMax reader (Molecular Devices) after ATP was added. The concentrations provided are based on the final mixture volume of 40 μL (referred to as the final concentration).
Controls: N8-(cyclopropylmethyl)-N4-(2-(methylthio)phenyl)-2-(piperazin-1-yl)pyrimido[5,4-d]pyrimidine-4,8-diamine at 2 μM final concentration was used as high percent effect (HPE) control, and 2.5% DMSO which was present in all reaction wells was used as zero percent effect (ZPE) control. Reaction rates were obtained for 300-1800 seconds time window in units of 1000*AU/min (absorbance unit per minute), and average values for ZPE and HPE controls from 16 wells each were calculated, AveZPE and AveHPE, respectively.
Percent inhibition (% inhibition) was calculated for each well using this equation:
For each compound tested, the IC50 provided is the average based on at least two separate assays conducted on separate days.

KHK-C [3] = target: T1, KHK-C; experiment: Assay B: KHK assay with 1 nM KHK-C, absorbance for 3 hours; conditions: for IC50: read-out: IC50 (nM) Assay B 1 nM KHK-C, 1 nM KHK-C, 0.2 mM ATP, 3 hours, avg of (#) runs
Text: as §1
The reaction was initiated with addition of 0.2 mM ATP, and the absorbance was monitored for 3 hours at 340 nm. Reaction rates and IC50 values were calculated as described above.

KHK-A = KHK-A (Homo sapiens (Human), UniProt P50053); experiment: Assay D: KHK assay with 1 nM human KHK-A; conditions: read-out: IC50 (nM) Assay D 1 nM KHK-A, 8 mM fructose, 0.2 mM ATP, avg of (#) runs
Sequence of KHK-A (P50053 other isoform, or with tags, fused parts or gaps): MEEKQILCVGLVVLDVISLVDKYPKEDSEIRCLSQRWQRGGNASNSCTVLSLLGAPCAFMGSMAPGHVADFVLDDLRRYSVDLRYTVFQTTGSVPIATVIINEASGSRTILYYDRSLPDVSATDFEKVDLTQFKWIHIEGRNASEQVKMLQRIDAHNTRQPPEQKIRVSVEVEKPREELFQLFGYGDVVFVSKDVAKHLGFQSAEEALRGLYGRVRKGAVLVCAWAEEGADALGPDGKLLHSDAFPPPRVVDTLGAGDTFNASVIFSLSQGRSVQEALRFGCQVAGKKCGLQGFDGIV
Text: as §1
A fourth assay, referred to as Assay D, was performed using human KHK-A to assess the potency of compounds in inhibiting activity of this enzyme. […] Reaction rates and IC50 values were calculated as described above.

[4] = read-out: IC50 (nM) Assay A 10 nM KHK-C
[5] = read-out: IC50 (nM) Assay A (Table 4)

T1 sequence (P50053 whole entry): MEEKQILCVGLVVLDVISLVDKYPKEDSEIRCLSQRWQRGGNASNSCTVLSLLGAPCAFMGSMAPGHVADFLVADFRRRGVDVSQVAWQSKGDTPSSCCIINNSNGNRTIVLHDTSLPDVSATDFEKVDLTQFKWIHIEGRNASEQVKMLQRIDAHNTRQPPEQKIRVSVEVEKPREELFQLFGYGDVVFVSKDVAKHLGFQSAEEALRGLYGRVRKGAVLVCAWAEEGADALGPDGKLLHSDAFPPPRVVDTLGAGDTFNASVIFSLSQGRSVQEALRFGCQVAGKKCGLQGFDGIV

Row | SMILES | IC50 (KHK-C [2]; [4]) [nM] | IC50 (KHK-A) [nM] | IC50 (KHK-C [2]; [5]) [nM] | IC50 (KHK-C [3]) [nM] | also measured
1 | C[C@H]1[C@H](O)CN1c1nc(N2C[C@@H]3[C@@H](CC(=O)O)[C@@H]3C2)c(Cl)c(C(F)(F)F)c1C#N [Example 2, [(1R,5S,6R)-3-{3-chloro-5-cyano-6-[(2S,3R)-3-hydroxy-2-methylazetidin-1-yl]-4-(trifluoromethyl)pyridin-2-yl}-3-azabicyclo[3.1.0]hex-6-yl]acetic acid] | 6.8 |  |  |  | pIC50 (KHK-C [1]; 8 mM fructose, 2 mM ATP, avg of (#) runs): 8.44; pIC50 (KHK-C [3]): 8.82
2 | Cc1c(N2C[C@@H]3[C@@H](CC(=O)O)[C@@H]3C2)nc(N2C[C@@H](O)[C@@H]2C)nc1C(F)(F)F [Example 24, [(1R,5S,6R)-3-{2-[(2S,3R)-3-hydroxy-2-methylazetidin-1-yl]-5-methyl-6-(trifluoromethyl)pyrimidin-4-yl}-3-azabicyclo[3.1.0]hex-6-yl]acetic acid] | 9.7 | 12.1 | 9.7 | 3.3 | IC50 (KHK-C [1]): 11 nM
3 | C[C@H]1CCN1c1nc(C(F)F)c(Cl)c(N2C[C@@H]3[C@@H](CC(=O)O)[C@@H]3C2)n1 [Example 40, [(1R,5S,6R)-3-{5-chloro-6-(difluoromethyl)-2-[(2S)-2-methylazetidin-1-yl]pyrimidin-4-yl}-3-azabicyclo[3.1.0]hex-6-yl]acetic acid] | 11.1 | 37.9 | 11.1 | 3.7 | 
4 | Cc1c(N2C[C@@H]3[C@@H](CC(=O)O)[C@@H]3C2)nc(N2CC[C@@H]2C)nc1C(F)(F)F [Example 42, [(1R,5S,6R)-3-{5-methyl-2-[(2S)-2-methylazetidin-1-yl]-6-(trifluoromethyl)pyrimidin-4-yl}-3-azabicyclo[3.1.0]hex-6-yl]acetic acid] | 8.8 | 10.5 | 8.8 | 2.4 | 
5 | Cc1c(C(F)F)nc(N2CC[C@@H]2C)nc1N1C[C@@H]2[C@@H](CC(=O)O)[C@@H]2C1 [Example 43, [(1R,5S,6R)-3-{6-(difluoromethyl)-5-methyl-2-[(2S)-2-methylazetidin-1-yl]pyrimidin-4-yl}-3-azabicyclo[3.1.0]hex-6-yl]acetic acid] | 17.8 | 48.6 | 17.8 | 8 | 

Second part, led by results:

Row | IC50 (KHK-C [2]; [4]) [nM] | IC50 (KHK-A) [nM] | IC50 (KHK-C [2]; [5]) [nM] | IC50 (KHK-C [3]) [nM] | SMILES | also measured
6 |  |  | 619 |  | O=C(O)C[C@@H]1[C@H]2CN(c3cc(C(F)(F)F)nc(N4CCC4)n3)C[C@@H]12 [Example 47, {(1R,5S,6s)-3-[2-(azetidin-1-yl)-6-(trifluoromethyl)pyrimidin-4-yl]-3-azabicyclo[3.1.0]hex-6-yl}acetic acid] | 
7 |  |  | 1360 |  | C[C@@H]1N(c2nc(N3C[C@@H]4[C@H](C3)[C@H]4CS(C)(=O)=O)c(Cl)c(C(F)(F)F)n2)C[C@@]1(C)O [Example 48, (2S,3R)-1-[5-chloro-4-{(1R,5S,6S)-6-[(methylsulfonyl)methyl]-3-azabicyclo[3.1.0]hex-3-yl}-6-(trifluoromethyl)pyrimidin-2-yl]-2,3-dimethylazetidin-3-ol] | 
8 | 4.4 |  | 4.4 | 1.5 | C[C@H]1[C@H](O)CN1c1nc(N2C[C@@H]3[C@@H](CC(=O)O)[C@@H]3C2)c(F)c(C(C)(F)F)c1C#N [Example 50, [(1R,5S,6R)-3-{5-cyano-4-(1,1-difluoroethyl)-3-fluoro-6-[(2S,3R)-3-hydroxy-2-methylazetidin-1-yl]pyridin-2-yl}-3-azabicyclo[3.1.0]hex-6-yl]acetic acid] | IC50 (KHK-C [1]): 2.6 nM
9 |  |  | 150 |  | N#Cc1c(C(F)F)cc(N2C[C@@H]3[C@@H](CC(=O)O)[C@@H]3C2)nc1NC1CCC1 [Example 51, {(1R,5S,6s)-3-[5-cyano-6-(cyclobutylamino)-4-(difluoromethyl)pyridin-2-yl]-3-azabicyclo[3.1.0]hex-6-yl}acetic acid] | 
10 |  |  | 82.5 |  | C[C@H]1[C@H](O)CN1c1nc(N2C[C@@H]3[C@@H](CCC(=O)O)[C@@H]3C2)cc(C(F)(F)F)c1C#N [Example 52, 3-[(1R,5S,6R)-3-{5-cyano-6-[(2S,3R)-3-hydroxy-2-methylazetidin-1-yl]-4-(trifluoromethyl)pyridin-2-yl}-3-azabicyclo[3.1.0]hex-6-yl]propanoic acid] | 
11 |  |  | 21 |  | C[C@H]1[C@H](O)CN1c1nc(N2C[C@@H]3[C@@H](CC(=O)O)[C@@H]3C2)c(C#N)c(C(F)(F)F)n1 [Example 53, [(1R,5S,6R)-3-{5-cyano-2-[(2S,3R)-3-hydroxy-2-methylazetidin-1-yl]-6-(trifluoromethyl)pyrimidin-4-yl}-3-azabicyclo[3.1.0]hex-6-yl]acetic acid] | 
12 |  |  | 19 |  | C[C@H]1[C@H](O)CN1c1nc(N2C[C@@H]3[C@@H](CC(=O)O)[C@@H]3C2)nc(C(F)(F)F)c1C#N [Example 54, [(1R,5S,6R)-3-{5-cyano-4-[(2S,3R)-3-hydroxy-2-methylazetidin-1-yl]-6-(trifluoromethyl)pyrimidin-2-yl}-3-azabicyclo[3.1.0]hex-6-yl]acetic acid] | 
13 |  |  | 13.7 |  | C[C@@H]1N(c2nc(N3C[C@@H]4[C@@H](CC(=O)O)[C@@H]4C3)cc(C(F)F)c2C#N)C[C@@]1(C)O [Example 55, [(1R,5S,6R)-3-{5-cyano-4-(difluoromethyl)-6-[(2S,3R)-3-hydroxy-2,3-dimethylazetidin-1-yl]pyridin-2-yl}-3-azabicyclo[3.1.0]hex-6-yl]acetic acid] | 
